Assay results reported in patent US20230355690A1, “METHOD OF TREATMENT WITH LACTIC ACID BACTERIA” (UNIVERSITY-INDUSTRY COOPERATION GROUP OF KYUNG HEE …, priority 2017, published 2023).

Legend:
[1] = test system: NF-κB (p-p65/p65); assay: Inflammation reaction inhibiting effect on dendritic cells (LPS): NF-κB activation, immunoblotting; format: cell-based; conditions: C57BL/6 mouse bone marrow dendritic cells + LPS, 90 minutes; lactic acid bacteria 1×10^4 CFU/ml
Text: (§1) Immune cells were isolated from the bone marrow of a C57BL/6 mouse (male, 20-23 g) by using RPMI 1640 containing 10% FBS, 1% antibiotics, 1% glutamax and 0.1% mercaptoethanol, then treated with RBC lysis buffer, and then washed. Said cells were divided into each well of a 24-well plate, then treated with GM-CSF and IL-4 at a ratio of 1:1000, and then cultured. On a 5th day of culture, the cells were replaced with a new medium, then collected on an 8th day thereof, and then used as dendritic cells. After that, the dendritic cells were plated into a 24-well plate at 0.5×10^6 cells per well, then treated with a test material, i.e., lactic acid bacteria, as well as an inflammation reaction inducer, i.e., lipopolysaccharide (LPS) for 90 minutes or 24 hours, and then supernatant and cells were obtained therefrom. At that time, a treatment concentration of lactic acid bacteria was 1×10^4 CFU/ml. Also, in order to compare the effects of lactic acid bacteria, various prebiotics were used as the test material.
(§2) An expression level of IL-10 and IL-12 was measured from said obtained supernatant by means of an ELISA kit. Also, the expression level of p65 (NF-κB), p-p65 (phosphor-NF-κB) and β-actin was measured from the cells, which have been obtained after being treated with the test material for 90 minutes, by means of the same immunoblotting method as in Example 2.(1) above. The results of testing the inflammation reaction inhibiting effect of lactic acid bacteria on dendritic cells are shown in following tables 8 to 10.

[2] = test system: IL-12; assay: Inflammation reaction inhibiting effect on dendritic cells (LPS): IL-12 expression, ELISA; format: cell-based; conditions: C57BL/6 mouse bone marrow dendritic cells + LPS; lactic acid bacteria 1×10^4 CFU/ml
Text: as §1, §2

[3] = test system: Treg cell; assay: Spleen T cell differentiation into Treg cells, FACS; format: cell-based; conditions: C56BL/6J mouse spleen CD4 T cells; lactic acid bacteria 1×10^5 CFU per well, four days
Description: (§3) Particularly, a spleen was isolated from a C56BL/6J mouse, then crushed, then suspended in an RPMI 1640 medium containing 10% FCS, and then CD4 T cells were isolated by using a CD4 T cell isolation kit (MiltenyiBiotec, Bergisch Gladbach, Germany). The isolated CD4 T cells were divided into a 12-well plate at 5×10^5 cells per well. After that, the cells were cultured in each well with an addition of anti-CD3, anti-CD28, IL-2 and IL-12 to induce a differentiation of T cells into Th1 cells; with the addition of anti-CD3, anti-CD28, IL-2 and IL-4 to induce the differentiation of T cells into Th2 cells; with the addition of anti-CD3, anti-CD28, IL-6 and TGF-β to induce the differentiation of T cells into Th17 cells; and with the addition of anti-CD3 and anti-CD28 to induce the differentiation of T cells into Treg cells, and a test material, i.e., lactic acid bacteria were inserted thereinto at 1×10^5 CFU per well, and then cultured for four days. Also, in order to compare the effects of lactic acid bacteria, various prebiotics were used as the test material.
(§4) After that, a differentiation potency of the T cells isolated from the spleen into Th1, Th2, Th17 and Treg cells was measured. Particularly, the cells of culture fluid were stained with anti-FOXp3 or anti-IL-17A antibodies, after which a distribution of Th1, Th2, Th17 and Treg cells was analyzed by means of a FACS (fluorescence-activated cell sorting) device (C6 Flow Cytometer® System, San Jose, CA, USA), wherein results thereof are shown in following tables 11 to 13. In the tables 11 to 13 below, the lactic acid bacteria are shown without species names thereof, and are given strain names assigned by the present inventors.

[4] = test system: Th1 cell; assay: Spleen T cell differentiation into Th1 cells, FACS; format: cell-based; conditions: C56BL/6J mouse spleen CD4 T cells; lactic acid bacteria 1×10^5 CFU per well, four days
Description: as §3, §4

[5] = test system: Th17 cell; assay: Spleen T cell differentiation into Th17 cells, FACS; format: cell-based; conditions: C56BL/6J mouse spleen CD4 T cells; lactic acid bacteria 1×10^5 CFU per well, four days
Description: as §3, §4

[6] = test system: NF-κB (p-p65/p65); assay: Inflammation reaction inhibiting effect on macrophage (LPS): NF-κB activation, immunoblotting; format: cell-based; conditions: C57BL/6J mouse peritoneal macrophage + LPS; lactic acid bacteria 1×10^4 CFU/ml
Description: (§5) A six-week old C57BL/6J male mouse (20-23 g) was purchased from Raonbio Co., Ltd. 2 ml of sterilized 4% thioglycolate was intraperitoneally administered into the mouse, which was then anesthetized in 96 hours later. After that, 8 ml of RPMI 1640 medium was intraperitoneally administered to the mouse. In 5 to 10 minutes later, the RPMI medium (including macrophage) was intraperitoneally extracted again from the mouse, then centrifuged on condition of 1000 rpm for 10 minutes, and then washed twice again with the RPMI 1640 medium. The macrophage was plated into a 24-well plate at 0.5×10^6 cells per well, then cultured for 24 hours, and then unattached cells were removed therefrom. The macrophage culture fluid was treated with a test material, i.e., lactic acid bacteria as well as an inflammation reaction inducer, i.e., lipopolysaccharide (LPS) for 90 minutes or 24 hours, and then supernatant and cells were obtained therefrom. At that time, a treatment concentration of lactic acid bacteria was 1×10^4 CFU/ml. Also, in order to compare the effects of lactic acid bacteria, various prebiotics were used as the test material.
An expression level of TNF-α from said obtained supernatant was measured by means of an ELISA kit. Also, the expression level of p65 (NF-κB), p-p65 (phosphor-NF-κB) and β-actin was measured from said obtained cells by means of an immunoblotting method. Particularly, 50 μg of the supernatant was taken and subjected to electrophoresis in SDS 10% (w/v) polyacrylamide gel for one and half an hour. The electrophoresed sample was transferred onto a nitrocellulose paper on condition of 100 V and 400 mA for one hour and 10 minutes. The nitrocellulose paper, onto which the sample was transferred, was subjected to blocking by means of 5% skim milk for 30 minutes, then washed with PBS-Tween three times for five minutes each, and then subjected to reaction overnight with an addition of primary antibodies (Santa Cruz Biotechnology, the U.S.) at a ratio of 1:100. After that, such paper was washed three times for ten minutes each, and subjected to reaction with the addition of secondary antibodies (Santa Cruz Biotechnology, the U.S.) at a ratio of 1:1000 for one hour and 20 minutes. Then, such paper was washed three times for 15 minutes each, then subjected to fluorescent color formation, then developed, and then the intensity of chromophore band was measured.

[7] = test system: IL-10; assay: Inflammation reaction inhibiting effect on dendritic cells (LPS): IL-10 expression, ELISA; format: cell-based; conditions: C57BL/6 mouse bone marrow dendritic cells + LPS; lactic acid bacteria 1×10^4 CFU/ml
Text: as §1, §2

[8] = test system: Th2 cell; assay: Spleen T cell differentiation into Th2 cells, FACS; format: cell-based; conditions: C56BL/6J mouse spleen CD4 T cells; lactic acid bacteria 1×10^5 CFU per well, four days
Description: as §3, §4

[9] = test system: TNF-α; assay: Inflammation reaction inhibiting effect on macrophage (LPS): TNF-α expression, ELISA; format: cell-based; conditions: C57BL/6J mouse peritoneal macrophage + LPS; lactic acid bacteria 1×10^4 CFU/ml
Description: as §5, with “At that time, a treatment concentration of lactic acid bacteria was 1×10^4 CFU/ml. Also, in order to compare the effects of lactic acid bacteria, various prebiotics were used as the test material.” left out
An expression level of TNF-α from said obtained supernatant was measured by means of an ELISA kit. Also, the expression level of p65 (NF-κB), p-p65 (phosphor-NF-κB) and β-actin was measured from said obtained cells by means of an immunoblotting method. […] Then, such paper was washed three times for 15 minutes each, then subjected to fluorescent color formation, then developed, and then the intensity of chromophore band was measured.

[10] = test system: animal model with induced allergic rhinitis and asthma; assay: Example 6: OVA-induced allergic rhinitis and asthma mice, indicators in serum and BALF (ELISA, FACS); format: in vivo, mouse; conditions: oral once daily for five days, Dx 1 mg/kg intraperitoneal
Description: Seven week-old BALB/C female mice (21-23 g) were acclimated for one week on condition of a controlled environment with humidity of 50%, temperature of 25° C., and light/dark cycle of 12:12 hours. After that, 20 μg of allergy-inducing ovalbumin (OVA) and 2 mg of aluminum hydroxide (Alum) were suspended into 0.2 ml of phosphate buffered saline (PBS: pH 7.4) and intraperitoneally injected into each of the mice on initial and 14th days of an experiment. Then, 100 μg of the OVA was dissolved in 10 μl of distilled water, and intranasally smeared onto each of the mice to induce allergic rhinitis and asthma therefrom on 26th, 27th and 28th days of the experiment. Meanwhile, a test drug, i.e., lactic acid bacteria were orally administered into each of the mice once daily for a total of five days from 26th to 30th days of the experiment. Also, dexamethasone, which was used as a positive control drug instead of lactic acid bacteria, was intraperitoneally administered at a dose of 1 mg/kg b.w. Further, in case of the mice of a normal group, allergic rhinitis and asthma were not induced therefrom, but only the phosphate buffered saline (PBS: pH 7.4) was orally administered thereinto instead of the OVA and the test drug. Furthermore, in case of the mice of a control group, allergic rhinitis and asthma were induced therefrom, and only the phosphate buffered saline (PBS: pH 7.4) was orally administered thereinto as the test drug. After an end of the experiment, the mice were anesthetized, after which blood, lung tissues and the BALF were collected therefrom. Serum was isolated from the blood collected by means of centrifugation, and used as an assay sample. Indicators related to anti-rhinitis and anti-asthma effects were analyzed from serum, the BALF and lung tissues by using various analysis methods. Each analysis method and indicators analyzed thereby are as follows. • Enzyme-linked immunosorbent assay (ELISA): IL-10, IL-5, IL-6, IL-4, IgE, etc. • FACS (fluorescence-activated cell sorting): Distribution of T cells (Th1: CD4^+/IFN-γ^+; Th2: CD4^+/IL-4^+; Treg: CD4^+/FOXp3^+; Th17: CD4^+/IL-17^+), Distribution of eosinophils (CD11b^+, Siglec-F^+)

## OC[C@H]1O[C@H](O[C@H]2O[C@H](CO)[C@@H](O)[C@H](O)[C@H]2O)[C@H](O)[C@@H](O)[C@@H]1O [Trehalose, trehalose]
[1]
  NF-κB activation inhibition rate (p-p65/p65): + (10-30%)
[2]
  IL-12 expression inhibition rate: + (10-30%)
[3]
  Differentiation increasing rate Treg cell: + (10-50%)
[4]
  Differentiation inhibition rate Th1 cell: + (10-30%)
[5]
  Differentiation inhibition rate Th17 cell: + (10-30%)
[6]
  NF-κB activation inhibition rate (p-p65/p65): + (10-30%)
[7]
  IL-10 expression increasing rate: + (10-50%)
[8]
  Differentiation inhibition rate Th2 cell: + (10-30%)

## gelatin
[1]
  NF-κB activation inhibition rate (p-p65/p65): + (10-30%)
[2]
  IL-12 expression inhibition rate: + (10-30%)
[3]
  Differentiation increasing rate Treg cell: + (10-50%)
[4]
  Differentiation inhibition rate Th1 cell: + (10-30%)
[5]
  Differentiation inhibition rate Th17 cell: + (10-30%)
[6]
  NF-κB activation inhibition rate (p-p65/p65): + (10-30%)
[7]
  IL-10 expression increasing rate: + (10-50%)
[8]
  Differentiation inhibition rate Th2 cell: ++ (30-60%)
[9]
  TNF-α expression inhibition rate: + (10-30%)

## OC[C@H]1O[C@@H](O[C@@H]2[C@@H](CO)OC(O)(CO)[C@H]2O)[C@H](O)[C@@H](O)[C@H]1O (mixture of isomers) [Lactulose, lactulose]
[1]
  NF-κB activation inhibition rate (p-p65/p65): + (10-30%)
[2]
  IL-12 expression inhibition rate: + (10-30%)
[3]
  Differentiation increasing rate Treg cell: ++ (50-100%)
[4]
  Differentiation inhibition rate Th1 cell: + (10-30%)
[5]
  Differentiation inhibition rate Th17 cell: − (<10%)
[6]
  NF-κB activation inhibition rate (p-p65/p65): + (10-30%)
[7]
  IL-10 expression increasing rate: − (<10%)
[8]
  Differentiation inhibition rate Th2 cell: ++ (30-60%)

## C[C@@H]1C[C@H]2[C@@H]3CCC4=CC(=O)C=C[C@]4(C)[C@@]3(F)[C@@H](O)C[C@]2(C)[C@@]1(O)C(=O)CO [Dx, dexamethasone]
[10]; BALF, FACS
  Increasing rate Treg cell: − (<10%)
  Inhibition rate Eosinophils: +++ (>60%)
  Inhibition rate Th2 cell: +++ (>60%)
[10]; BALF
  Increasing rate IL-10: ++ (50-100%)
  Inhibition rate IL-4: +++ (>60%)
  Inhibition rate IL-5: +++ (>60%)
[10]; serum
  Inhibition rate IL-4: +++ (>60%)
  Inhibition rate IL-5: ++ (30-60%)
  Inhibition rate IgE: +++ (>60%)

## cyclodextrin
[1]
  NF-κB activation inhibition rate (p-p65/p65): + (10-30%)
[2]
  IL-12 expression inhibition rate: + (10-30%)
[3]
  Differentiation increasing rate Treg cell: + (10-50%)
[4]
  Differentiation inhibition rate Th1 cell: ++ (30-60%)
[5]
  Differentiation inhibition rate Th17 cell: ++ (30-60%)
[6]
  NF-κB activation inhibition rate (p-p65/p65): + (10-30%)
[7]
  IL-10 expression increasing rate: − (<10%)
[8]
  Differentiation inhibition rate Th2 cell: + (10-30%)
